For 22 molecules, GI50 and TGI results are on record in PubChem BioAssay (NCI).

What all share (assay): inhibition of tumour cell growth, NCI panel, 48 h
For test [1], the system named is RPMI-8226 leukemia.
Test [2] relates to NCI-H23 lung.
Test [3] relates to RXF 393 renal.
The test system of test [4] is HT29 colon.
Test [5] has as its system SNB-75 CNS.
The subject of test [6] is CCRF-CEM leukemia.
In test [7] the test system is UACC-62 melanoma.
Test [8] deals with EKVX NSCLC.
In test [9] the test system is MOLT-4 leukemia.
Test [10] deals with U251 CNS.

Several values for one entry are separate records, joined by “and”; a condition that tells them apart may be missing. Equal entries are not always repeated.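 These data come from cells grown in 96-well plates and exposed to compound for 48 hours at five concentrations. Abbreviation: GI50, concentration required for 50% inhibition of growth. TGI: total growth inhibition.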 Bounds are passed on as bounds.

Consider `c1ccc(-c2cc3n4c(-c5ccccc5)nn(-c5ccccc5)c4cnc-3n2)cc1`, for which the GI50 in test [1] is more than 50 µM; in test [2], more than 50 µM; in [3] it was 4.16 µM; in [4], more than 50 µM; in test [5], 5.39 µM; in [6], more than 50 µM. Further, the GI50 in test [7] is more than 50 µM; in [8] it was 17 µM; in test [9], more than 50 µM; in test [10] it was 7.85 µM. Moreover, the TGI in test [1] was more than 50 µM; in test [2] it was more than 50 µM; in [3] it was 33.8 µM; in test [4] it was more than 50 µM; in test [5], 17.8 µM; in [6] it was more than 50 µM. For the same molecule, the TGI in [7], in [8], in [9] and in test [10] was more than 50 µM throughout.

As for `O/N=C1\C(=C\c2ccc3c(c2)OCCO3)CCCC1C(NO)c1ccc2c(c1)OCCO2` (stereo unspecified), the TGI in test [1] was more than 100 µM; in test [3], 59.3 µM; in [4] it was 32.3 µM; in test [5] it was 72.6 µM; in [6] it was 48.9 µM; in test [7], 31.7 µM. Moreover, the TGI is 69.6 µM in test [8], 32.4 µM in test [9] and 42.2 µM in [10].

As to `Cc1c2ccccc2c(C)n2c1nc1cc(Cl)c(Cl)cc12`, the GI50 is 18.4 µM in [1]; more than 100 µM in [2]; more than 100 µM in [3]; 31 µM in test [4]; 36.9 µM in test [5]; 43.9 µM in [6]. Further, the GI50 was 45.2 µM in test [7], 93.7 µM in test [8], 16 µM in test [9] and 34.6 µM in test [10]. Moreover, the TGI in test [1], in [2], in test [3], in test [4], in test [5] and in test [6] was more than 100 µM each time. The TGI in test [7] is more than 100 µM; in test [8] it was more than 100 µM; in test [9] it was 8.62 µM and 46.5 µM; in test [10] it was more than 100 µM.

Consider `CC(=O)[O][Hg][c]1s[c]([Hg][O]C(C)=O)[c]([Hg][O]C(C)=O)[c]1[Hg][O]C(C)=O`, for which the GI50 in test [1] was 7.54 µM; in test [2] it was 19.7 µM; in [3] it was 13.1 µM; in test [4], 19.5 µM; in test [5], 4.91 µM; in test [6], 1.18 µM. Further, the figures for the GI50 in test [7] and in [9] were 6.47 µM and 2.26 µM, respectively. For the same molecule, the TGI was more than 100 µM in test [1]; more than 100 µM in [2]; 28.6 µM in [3]; more than 100 µM in test [4]; 25.4 µM in test [5]; more than 100 µM in test [6]. The TGI in test [7] came out at 27.4 µM; in test [9] it was 17.5 µM.

Regarding `CCOC(=O)N(O)c1ccc(/C=C/c2ccccc2)cc1`, the GI50 is 5.08 µM in test [1]; 5.77 µM in test [2]; 13.2 µM in test [3]; 8.3 µM in test [4]; 29.3 µM in [5]; 9.38 µM in [6]. In addition, the GI50 in test [7] was 0.47 µM; in test [8] it was 9.05 µM; in [9], 11 µM; in test [10], 4.72 µM. The TGI was 38.8 µM in test [1]; 37.1 µM in [2]; more than 90.4 µM in [3]; 31.5 µM in test [4]; more than 100 µM in [5]; more than 93.5 µM in test [6]. Besides, the TGI in test [7] is 3.07 µM; in test [8] it was 63.6 µM; in test [9] it was 51.3 µM; in test [10], 29.2 µM.

Take `COc1cc(CCc2ccncc2)cc(OC)c1OC`: the TGI in [1], in [2], in [3], in test [4], in test [5] and in test [6] was more than 100 µM each time. The TGI in [7], in test [8], in test [9] and in [10] was more than 100 µM throughout.

As to `CC[C@@H](C(=O)[C@@H](C)[C@@H](O)[C@H](C)[C@@H]1O[C@@H]([C@@H](CC)C(=O)O)CC[C@@H]1C)[C@H]1O[C@]2(C=C[C@@H](O)[C@]3(CC[C@@](C)([C@H]4CC[C@](O)(CC)[C@H](C)O4)O3)O2)[C@H](C)C[C@@H]1C`, the GI50 in [1] is 0.277 µM; in test [2], 0.528 µM; in test [3], 0.114 µM; in test [4], 0.331 µM; in [5], 1.05 µM; in test [6] it was 0.255 µM. Also, the GI50 was 1.04 µM in [7], 1.11 µM in [8], 0.911 µM in test [9] and 0.149 µM in [10]. The TGI stood at 3.75 µM in test [1]; 11.4 µM in test [2]; 2.64 µM in test [3]; 15 µM in test [4]; 4.31 µM in test [5]; 12.7 µM in test [6]. The TGI in test [7] was found to be 2.33 µM; in [8], 24.8 µM; in test [9], 5.17 µM; in [10] it was 8.91 µM.

Consider `CCOc1ccccc1N=Cc1c2ccccc2cc2ccccc12`, for which the TGI in test [1] was 56.5 µM; in test [2] it was 45.9 µM; in [3], 37.4 µM; in [4], 54.2 µM; in test [5], 47.7 µM; in test [6] it was more than 58.1 µM. In addition, the TGI is more than 100 µM in test [7], 52.3 µM in [8], 53.3 µM in test [9] and more than 63.9 µM in test [10].

As for `Cc1nc(-n2nc(-c3ccccc3)cc2-c2ccccc2)sc1C(=O)/C=C/c1cccc([N+](=O)[O-])c1`, the TGI in test [1] is 19.4 µM; in [2], 41.8 µM; in test [3], 29.8 µM; in [4], 28.1 µM; in test [5], 51.7 µM; in test [6] it was 44.4 µM. The TGI in [7] is 27.5 µM; in test [8], more than 100 µM; in test [9], 22.4 µM; in test [10] it was 32.5 µM.

With `CC1=CC(=O)N2C(OC[C@@H]2c2ccccc2)O1` (stereo partly specified), the TGI in [1], in [2], in [3], in [4], in test [5] and in [6] was more than 100 µM in each case. In addition, the TGI in test [7], in test [8], in [9] and in test [10] was more than 100 µM in each case.

For `N#C/C(=C1\OC(N)=C(c2ccc(Cl)cc2)C1=O)c1ccc(Cl)cc1`, the TGI stood at 50 µM in [1]; 27.1 µM in [2]; 25.4 µM in test [3]; 39.5 µM in test [4]; 32.4 µM in [5]; 73.5 µM in test [6]. Also, the TGI in test [7] is 27.5 µM; in test [8], 32.4 µM; in test [9] it was 50.9 µM; in test [10], 29.1 µM.

`O=C(N/N=C/c1ccc(N(CCCl)CCCl)cc1)c1ccc(C(=O)N/N=C/c2ccc(N(CCCl)CCCl)cc2)cc1`: the GI50 was 1.33 µM in test [1]; 7.63 µM in test [3]; 0.801 µM in test [4]; 6.74 µM in test [5]; 0.0349 µM in [6]; 0.226 µM in test [9]. Also, the GI50 in test [10] was 0.346 µM. Further, the TGI in test [1] is 15.1 µM; in test [3], more than 100 µM; in [4], more than 100 µM; in test [5], more than 100 µM; in test [6], more than 100 µM; in [9], more than 100 µM. This molecule also displayed a TGI in test [10] of 17.1 µM.

As for `COC1CC(n2cc(F)c(N)nc2=O)OC1CO` (stereo unspecified), the TGI in [1], in [2], in test [3], in test [4], in test [5] and in [6] was more than 100 µM throughout. Also, the TGI in [8], in [9] and in test [10] was more than 100 µM each time.

Take `CC1=C2C3OC(=O)C(C)C3C(O)C[C@@]2(C)C(=O)CC1` (stereo partly specified): the TGI in test [1], in [3], in [4], in [5], in test [6] and in test [7] was more than 100 µM in each case. In addition, the TGI in [8], in test [9] and in test [10] was more than 100 µM in each case.

Consider `N#CNC1=NCCC(=O)N1CCc1c[nH]c2ccccc12`, for which the TGI in [1], in [2], in [3], in test [4], in [5] and in [6] was more than 100 µM each time. Moreover, the TGI in test [7], in [8] and in [9] was more than 100 µM each time.

Turning to `Cn1cc(-c2csc(-c3cn(C(=O)OC(C)(C)C)c4ccccc34)n2)c2cccnc21`, the GI50 in test [1] is 7.66 µM; in test [2], 11.2 µM; in test [3] it was 2.26 µM; in test [5], 1.7 µM; in test [6], 3.89 µM; in test [7] it was 7.8 µM. The GI50 in test [8] is 7.12 µM; in test [9], 8.88 µM; in test [10], 4.23 µM. In addition, the TGI in test [1] was found to be 36.7 µM; in test [2] it was 30.9 µM; in [3], 9.29 µM; in [5], 8.63 µM; in test [6] it was 67.6 µM; in test [7], 22.4 µM. Also, the results for the TGI in [8], in test [9] and in test [10] were 33.7 µM, 46.8 µM and 16.3 µM, respectively.

In the case of `CC(=O)OC1=C(CC(C)(C)C)C(=O)c2ccccc2C1=O`, the TGI in [1] is 39.1 µM; in test [2], 38.8 µM; in [3], 82.7 µM; in [4], more than 100 µM; in test [5], more than 100 µM; in test [6] it was 55.6 µM. Besides, the TGI in test [7], in test [8] and in test [10] was more than 100 µM in each case.

Consider `C[C@@H]1Cc2c(ccc3[nH]ncc23)[C@@H](c2ccc(NC3CN(CCCF)C3)cn2)N1CC(F)(F)F`, for which the GI50 was 18.6 µM in test [1]; 6.8 µM in [3]; 13.7 µM in test [4]; 12.7 µM in [5]; 21.1 µM in test [6]; 15.2 µM in [7]. In addition, the GI50 in test [8] is 28.9 µM; in test [9], 19.6 µM; in test [10], 15.8 µM. In addition, the TGI is 47.4 µM in test [1]; 22.9 µM in [3]; 43.2 µM in test [4]; more than 100 µM in [5]; 67.3 µM in test [6]; 30.5 µM in test [7]. Besides, the results for the TGI in test [8], in test [9] and in test [10] were more than 100 µM, more than 100 µM and 36.7 µM, respectively.

`CCOc1ccccc1NC(=O)C1=C(C)NC(C)=C(C(=O)Nc2ccccc2OCC)C1c1cccc([N+](=O)[O-])c1`: the TGI is more than 100 µM in test [1]; more than 100 µM in test [2]; more than 100 µM in [3]; more than 100 µM in test [4]; 89.3 µM in test [5]; more than 100 µM in [6]. Moreover, the TGI in test [8], in test [9] and in test [10] was more than 100 µM in each case.

Consider `C[C@H]1CCC2C(OC(=O)[C@@H]2CN(C)C)[C@]2(C)C(=O)C=CC12O` (stereo partly specified), for which the TGI was 16.2 µM in test [1]; 13.6 µM in test [2]; 4.72 µM in test [3]; 16 µM in test [4]; 27.1 µM in test [5]; 9.22 µM in test [6]. The TGI in test [7] was determined as 9.32 µM; in test [9], 20.2 µM; in test [10], 38.8 µM.

Consider `CCOC(=O)CC(C)C1(C=O)CCCCC1=O` (stereo unspecified), for which the TGI in test [1] was 53.2 µM; in test [3], more than 100 µM; in test [5] it was more than 100 µM; in test [6], more than 100 µM; in test [7] it was more than 100 µM; in [8], more than 100 µM. In addition, the TGI in test [9] and in test [10] was more than 100 µM in each case.

On to `CC/C(C)=C1\CCC(CN(C)C)C1=O` (stereo unspecified), for which the TGI in [1] worked out at 17.1 µM; in [2], 42.9 µM; in test [3], 40.4 µM; in test [4], 46.5 µM; in [5], 30.1 µM; in [6], 39.8 µM. Also, the figures for the TGI in test [7], in test [8] and in test [9] were more than 100 µM, 44 µM and 70.9 µM, respectively.
